From patent US20190337971A1, “PANTETHEINE DERIVATIVES FOR THE TREATMENT OF NEUROLOGIC DISORDERS” (Retrophin, Inc., priority 2016, published 2019)
Like-named read-outs stand apart in the source and are kept apart here.

Tests used:
[1] = Stability of compounds in mouse hepatocytes; assay type: in vitro ADME; conditions: cryopreserved mouse hepatocytes in suspension, 37° C., 0-240 min
Method: Stability in hepatocytes for select compounds disclosed in the application was evaluated in two species (mouse and human) according to the following procedure. Compounds and positive control samples were dissolved in 100% DMSO at 5 mM. Cryopreserved hepatocytes were thawed and resuspended in Hepatocyte Basal Medium (HBM-Lonza CC-3199) supplemented with CC-4182 (complete hepatocyte culture medium). Test compounds were diluted into cell suspension (1 million cells/ml) from the stock solutions to have a test compound concentration of 5 μM (0.1% DMSO). Incubation was performed in 24-well plates, at 37° C. in a DUBNOFF water bath, under low shaking. Each compound was tested at 6 time points, in duplicates (0, 15, 30, 60, 120, and 240 min). At each time point, an aliquot of 120 μl was taken and transferred to a 96-well deep plate. The reaction was stopped with the addition of one volume of 100% acetonitrile plus 0.1% formic acid and the appropriate internal standard. Samples then were centrifuged at 1100×g for 30 min at +4° C. and supernatants were transferred to a new 96-deepwell plate. Samples were evaporated under N2 and reconstituted in H2O/ACN 0.1% formic Acid (98:2). Analysis was performed without a calibration curve (Acquity UPLC-Waters; Sciex API4000). Time 0 was obtained adding acetonitrile before addition of the test compound. Stability was determined based on analysis of disappearance of the compounds as a function of incubation time. Quantification of test compounds was measured as a peak area relative to an internal standard. The elimination constant, k, is calculated by plotting mean disappearance values on a semi-logarithmic scale and fitting with a best fit linear regression. The half-life (t1/2) expressed in hours was derived using Equation 1:
t1/2=ln 2/(−k). Equation 1: […]

[2] = Permeability in a porcine brain endothelial cell model of the blood-brain barrier; assay type: in vitro ADME; conditions: pig, luminal (apical) to basal, PBECs/As
Source text: Compounds disclosed herein show the potential to reach mammalian brain by crossing the blood-brain barrier (BBB) from systemic circulation. […] The porcine brain endothelial cell permeability assay is an in vitro BBB model to be used for the prediction of central nervous system (CNS) drug permeability in vivo and for ranking or prioritization of compounds according to their permeability. This system can also be used for mechanistic studies and drug delivery strategies via receptor-mediated transport (transcytosis). The system is a two-dimensional co-culture, non-contact model of two types of primary cells: primary brain endothelial cells obtained from fresh porcine brains, and primary rat astrocytes, obtained from neonatal rats (PBECs/As). This ensures barrier formation and functional expression of key transporters.
The endothelial cells were cultured on rat-tail collagen type I and human fibronectin coated Transwell polycarbonate inserts (surface area 0.7 cm^2; pore size 0.4 μm) and the inserts were placed in 24-well plates containing confluent rat astrocytes. This system allows for the formation of a differentiated BBB model suitable for compound permeability in 10 days.
On the day of the experiment, culture medium was removed and cells were pre-incubated for 30 min with HBSS containing 20 mM Hepes pH 7.4 and 0.1% BSA. Donor volume (apical) was 400 μl and receiver volume (basal) 900 μl. Compounds were diluted in assay medium (at the desired concentration) and added to the luminal side (to mimic blood to brain passage). Transport was measured usually after 60 min by detecting the amount of compound from the basal (brain side). The integrity of the cell layers was assessed by measuring the transendothelial electrical resistance (TEER) and by monitoring FITC-dextran (40 KDa) permeation. Inserts with TEER values>500 Ω/cm^2 were selected for permeability studies. […] Fluorescence was measured using a fluorimetric detector. Radioactivity was measured by scintillation counting. […] After reconstitution, samples were analyzed by LC-MS/MS. Mass balance was determined considering the amount of compound recovered in the donor and receiver chamber at the end of the assay relative to the amount added to the donor chamber at time 0.
Permeability was defined as the apparent permeability coefficient (Papp), which is a measure of the appearance rate of the compound in the receiver chamber, expressed in cm/s. Papp is calculated according the following equation: […]
To correct for the contribution of filter and substrate, Papp was also determined for the cell-free system. Permeability of the endothelial cell layer was determined using the following equation: […]

[3] = Diastereoisomer A (upfield shift in 31P NMR), read-out: t1/2 (h) Mouse Hepatocytes Diastereoisomer A (converted)
[4] = Diastereoisomer B, read-out: t1/2 (h) Mouse Hepatocytes Diastereoisomer B
[5] = pH 7.4, Diastereoisomer A (upfield shift in 31P NMR), read-out: Papp Diastereoisomer A
[6] = pH 7.4, Diastereoisomer B, read-out: Papp Diastereoisomer B

Row | Compound | half-life at 5 μM [1, 3] | half-life at 5 μM [1, 4] | Papp A→B at 60 min [2, 5] | Papp A→B at 60 min [2, 6]
1 | CC(=O)SCCNC(=O)CCNC(=O)[C@@H]1OP(=O)(OCOC(=O)c2scnc2C)OCC1(C)C (stereo partly drawn) [R1006, (((4R)-4-((3-((2-(acetylthio)ethyl)amino)-3-oxopropyl)carbamoyl)-5,5-dimethyl-2-oxido-1,3,2-dioxaphosphinan-2-yl)oxy)methyl 4-methylthiazole-5-carboxylate] | 0.31 h | < 0.25 h | 3.17 ×10⁻⁶ cm/s | 3.18 ×10⁻⁶ cm/s
2 | CC(=O)SCCNC(=O)CCNC(=O)[C@@H]1OP(=O)(OCOC(=O)c2cc(C)nn2C)OCC1(C)C (stereo partly drawn) [R1007, (((4R)-4-((3-((2-(acetylthio)ethyl)amino)-3-oxopropyl)carbamoyl)-5,5-dimethyl-2-oxido-1,3,2-dioxaphosphinan-2-yl)oxy)methyl 1,3-dimethyl-1H-pyrazole-5-carboxylate] | < 0.25 h | < 0.25 h | 3.1 ×10⁻⁶ cm/s | 3.6 ×10⁻⁶ cm/s
